We go through 2 compounds from patent US11590188B2, “Composition for the treatment of urinary tract infections” (priority 2020, dated 2023).

Data set [1] can be described thus: Earlier antibiotic treatment of the Example 2 subjects. It counts as in vivo, human. The conditions noted are these: 500 mg twice daily. From the text:
This can be compared to the subjects' situation before the study.

For data set [2] the following is noted: single ingredient, doses of 15-24 grams/day; cited from earlier work.

Read-outs that look alike come from different tables or passages of the source.

Regarding `CC1=C(C(=O)O)N2C(=O)[C@@H](NC(=O)[C@H](N)c3ccccc3)[C@H]2SC1` [Cephalexin], the Side effects entry in data set [1] (6-9 months) is “nausea, diarrhoea and yeast infections (oral and vaginal)”. In addition, in data set [1] (after 6-9 months), the “Recurrence of UTI symptoms” value is recorded as “UTI symptoms had reoccurred after the course of antibiotics was completed”.

On to `O=C[C@@H](O)[C@@H](O)[C@H](O)[C@H](O)CO` [D-mannose], for which, in data set [2], the Side effects result was “bloating, gas and diarrhea”.
